From patent publication US8642592B2, “Oxo-heterocyclically substituted alkyl carboxylic acids and use thereof” (Bayer Intellectual Property GmbH, priority 2009, dated 2014)

Tests used:
sGC = target: T1, sGC (Rattus norvegicus, UniProt P20595); test: sGC-activating activity in the CHO reporter cell in vitro; format: cell-based
T1 construct: expressed in transfected cells; host or cells: CHO reporter cell line
T1 sequence (P20595 1-619): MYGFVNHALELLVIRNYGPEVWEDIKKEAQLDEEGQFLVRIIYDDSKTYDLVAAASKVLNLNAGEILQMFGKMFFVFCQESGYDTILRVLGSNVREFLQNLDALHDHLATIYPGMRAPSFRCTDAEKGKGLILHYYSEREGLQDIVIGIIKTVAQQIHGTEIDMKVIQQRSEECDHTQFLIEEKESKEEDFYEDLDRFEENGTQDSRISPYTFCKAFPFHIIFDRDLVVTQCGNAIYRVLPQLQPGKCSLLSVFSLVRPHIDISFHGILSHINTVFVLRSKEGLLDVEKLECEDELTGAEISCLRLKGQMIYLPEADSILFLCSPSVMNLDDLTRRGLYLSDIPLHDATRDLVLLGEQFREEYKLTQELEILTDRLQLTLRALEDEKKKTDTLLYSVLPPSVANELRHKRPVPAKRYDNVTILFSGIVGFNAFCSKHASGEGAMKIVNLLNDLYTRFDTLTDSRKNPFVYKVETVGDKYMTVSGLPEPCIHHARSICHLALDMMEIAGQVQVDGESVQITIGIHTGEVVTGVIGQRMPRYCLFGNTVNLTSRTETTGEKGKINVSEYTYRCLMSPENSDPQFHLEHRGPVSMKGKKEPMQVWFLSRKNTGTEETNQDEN
T1 sequence (P19686 1-690 partner): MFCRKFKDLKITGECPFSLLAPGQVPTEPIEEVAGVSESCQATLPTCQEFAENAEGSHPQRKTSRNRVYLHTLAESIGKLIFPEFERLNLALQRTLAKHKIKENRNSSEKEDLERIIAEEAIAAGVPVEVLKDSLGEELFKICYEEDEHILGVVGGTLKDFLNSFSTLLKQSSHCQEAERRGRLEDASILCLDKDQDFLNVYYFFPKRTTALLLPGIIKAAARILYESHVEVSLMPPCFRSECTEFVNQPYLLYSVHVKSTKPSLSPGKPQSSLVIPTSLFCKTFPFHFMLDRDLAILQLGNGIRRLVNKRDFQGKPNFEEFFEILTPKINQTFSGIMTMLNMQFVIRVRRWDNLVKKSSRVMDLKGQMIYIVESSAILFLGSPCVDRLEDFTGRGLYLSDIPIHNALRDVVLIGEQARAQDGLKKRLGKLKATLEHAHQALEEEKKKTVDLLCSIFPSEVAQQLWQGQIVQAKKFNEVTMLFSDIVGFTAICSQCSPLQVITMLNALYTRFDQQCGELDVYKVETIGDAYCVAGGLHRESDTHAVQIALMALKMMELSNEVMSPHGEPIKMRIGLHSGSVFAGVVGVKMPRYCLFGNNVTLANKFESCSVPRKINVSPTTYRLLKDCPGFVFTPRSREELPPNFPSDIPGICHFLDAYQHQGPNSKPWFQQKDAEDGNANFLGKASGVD
Procedure: The cellular action of the compounds according to the invention is determined at a recombinant guanylate cyclase reporter cell line, as described in F. Wunder et al., Anal. Biochem. 339, 104-112 (2005).

saphenous artery = test: Vasorelaxant effect in vitro (phenylephrine-contracted artery rings); set-up: species or system Rabbits; settings: Oryctolagus cuniculus; concentration reducing phenylephrine-induced contraction of rabbit saphenous artery rings by 50%
Procedure: Rabbits are anesthetized and sacrificed by intravenous injection of thiopental sodium (about 50 mg/kg) and exsanguinated. The saphenous artery is removed and divided into rings 3 mm wide. The rings are mounted singly on in each case a pair of triangular hooks open at the end and made of 0.3 mm-thick special wire (Remanium®). Each ring is placed under an initial tension in 5 ml organ baths with Krebs-Henseleit solution which is at 37° C., is gassed with carbogen and has the following composition: NaCl 119 mM; KCl 4.8 mM; CaCl2×2 H2O 1 mM; MgSO4×7 H2O 1.4 mM; KH2PO4 1.2 mM; NaHCO3 25 mM; glucose 10 mM; bovine serum albumin 0.001%. The force of contraction is detected with Statham UC2 cells, amplified and digitized via A/D converters (DAS-1802 HC, Keithley Instruments, Munich) and recorded in parallel on chart recorders. Contractions are induced by addition of phenylephrine.
After several (generally 4) control cycles, the substance to be investigated is added in each further run in increasing dosage, and the level of the contraction achieved under the influence of the test substance is compared with the level of the contraction reached in the last preceding run. The concentration necessary to reduce the contraction reached in the preceding control by 50% is calculated from this (IC50). The standard application volume is 5 μl. The proportion of DMSO in the bath solution corresponds to 0.1%.

MEC (minimum effective concentration), sGC-activating activity in the CHO reporter cell (sGC): 10 nM
IC50 (saphenous artery): 284 nM
SMILES: O=C(NCCCCC1(C(=O)O)CC1)C(c1ccc(CN2N=C(c3ccccc3)OCC2=O)cc1)C1CCCC1 (single isomer, unassigned; (+)) [Example 1, (+)-1-(4-{[2-cyclopentyl-2-{4-[(5-oxo-2-phenyl-5,6-dihydro-4H-1,3,4-oxadiazin-4-yl)methyl]phenyl}-acetyl]amino}butyl)cyclopropanecarboxylic acid]
